Measurements from article PMC9221546, “New Phenylglycinamide Derivatives with Hybrid Structure as Candidates for New Broad-Spectrum Anticonvulsants” (Cells, 2022).

Tests used:
GABAA ion channel = GABAA ion channel [3H]GABA binding (agonist radioligand); conditions: 100 µM; rat cerebral cortex
Protocol: (§1) Binding/functional studies were carried out commercially in Eurofins Laboratories (Poitiers, France) and Eurofins Panlabs Discovery Services Taiwan, Ltd. (New Taipei City, Taiwan) using testing procedures that were reported previously (for details see Table S2).
(§2) Table S2. Radioligand binding and functional assays. […]
GABAA ion channel [3H]GABA (agonist radioligand) […]
(§3) TRPV1 (VR1) (h) (antagonist effect) […]
(§4) Assays were performed commercially in Eurofins Laboratories (Poitiers, France) or Eurofins Panlabs Discovery
(§5) Services Taiwan, Ltd. (New Taipei City, Taiwan). […]

NMDA receptor = assay: NMDA binding (antagonist radioligand); conditions: 100 µM; rat cerebral cortex
Protocol: as §1, §2
NMDA (antagonist radioligand) […]
as §3, §4, §5

[1] = Neurotoxicity, SH-SY5Y viability (MTS); format: cell-based; conditions: human, SH-SY5Y neuroblastoma cells, 10 and 50 µM, read-out: SH-SY5Y cell viability, % of the control
Protocol: Moreover, the dose-dependent increase in the cells viability was found during the repeated experiment in lower concentrations (Figure 8B). […] Thus, the observed influence of this chemical group for neuronal cells is worth further detailed exploration.
Figure 8 The effect of 53 and the cytostatic drug doxorubicin (DX) on neuroblastoma SH-SY5Y cell line viability after 72 h of incubation at 37 °C, 5% CO2 in the concentration range 1–100 µM (A) and 0.001–1 µM (B). The data were analyzed with one-way ANOVA, followed by Bonferroni’s Comparison Test (Graph Pad Prism 8.0.1 software, San Diego, CA, USA)): *** p < 0.001, **** p < 0.0001 vs. negative control (DMSO 1% in growth media).

hERG = target: T1, hERG (Homo sapiens, UniProt Q12809); assay: Potassium channel (hERG) binding; conditions: human recombinant HEK-293 cells expressing hERG, human recombinant HEK-293 cell, read-out: % Inhibition of Control Specific Binding, hERG
T1 construct: Eurofins
T1 sequence (Q12809 whole entry): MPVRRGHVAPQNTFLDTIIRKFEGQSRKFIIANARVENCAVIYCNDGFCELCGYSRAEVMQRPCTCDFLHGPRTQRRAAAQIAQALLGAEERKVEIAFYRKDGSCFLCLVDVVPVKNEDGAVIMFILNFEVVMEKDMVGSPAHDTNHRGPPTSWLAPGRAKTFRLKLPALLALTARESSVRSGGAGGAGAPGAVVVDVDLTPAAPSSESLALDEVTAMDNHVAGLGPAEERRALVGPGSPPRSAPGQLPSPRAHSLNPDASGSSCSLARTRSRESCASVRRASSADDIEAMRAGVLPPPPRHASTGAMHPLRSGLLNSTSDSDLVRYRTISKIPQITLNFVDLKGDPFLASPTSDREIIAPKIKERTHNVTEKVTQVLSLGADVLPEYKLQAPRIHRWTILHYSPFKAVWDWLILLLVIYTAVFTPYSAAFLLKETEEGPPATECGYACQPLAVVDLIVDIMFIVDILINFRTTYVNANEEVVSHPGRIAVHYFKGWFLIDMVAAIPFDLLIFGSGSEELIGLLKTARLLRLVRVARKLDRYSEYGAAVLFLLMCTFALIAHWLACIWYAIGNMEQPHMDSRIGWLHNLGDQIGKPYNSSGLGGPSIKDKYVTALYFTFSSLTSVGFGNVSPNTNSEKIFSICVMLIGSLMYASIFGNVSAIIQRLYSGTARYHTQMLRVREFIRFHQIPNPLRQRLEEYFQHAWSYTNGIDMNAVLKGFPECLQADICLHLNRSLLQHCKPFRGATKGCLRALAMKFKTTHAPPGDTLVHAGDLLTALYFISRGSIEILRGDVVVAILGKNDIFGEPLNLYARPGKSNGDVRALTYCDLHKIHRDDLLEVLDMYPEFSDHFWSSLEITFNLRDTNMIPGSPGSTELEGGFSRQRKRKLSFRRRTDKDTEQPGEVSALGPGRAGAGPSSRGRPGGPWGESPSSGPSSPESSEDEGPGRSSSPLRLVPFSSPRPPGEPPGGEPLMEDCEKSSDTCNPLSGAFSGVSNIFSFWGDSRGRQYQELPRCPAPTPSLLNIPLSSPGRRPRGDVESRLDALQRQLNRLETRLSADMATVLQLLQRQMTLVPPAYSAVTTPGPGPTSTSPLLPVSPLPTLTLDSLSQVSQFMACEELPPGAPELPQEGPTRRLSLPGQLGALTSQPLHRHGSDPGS
Protocol: as §1, §2
Potassium channel (hERG)
as §3, §4, §5

GABA transporter = GABA transporter binding (antagonist radioligand); conditions: 100 µM; rat cerebral cortex
Protocol: as §1, §2
GABA transporter (antagonist radioligand) […]
as §3, §4, §5

N-type Ca^2+ channel = target: T2, N-type Ca^2+ channel (Rattus norvegicus, UniProt Q02294); assay: N-type Ca2+ channel binding (antagonist radioligand); conditions: rat cerebral cortex, read-out: % Inhibition of Control Specific Binding, N-type Ca2+
T2 construct: Rat cerebral cortex; tissue Eurofins; host or cells: rat cerebral cortex
T2 sequence (Q02294 whole entry): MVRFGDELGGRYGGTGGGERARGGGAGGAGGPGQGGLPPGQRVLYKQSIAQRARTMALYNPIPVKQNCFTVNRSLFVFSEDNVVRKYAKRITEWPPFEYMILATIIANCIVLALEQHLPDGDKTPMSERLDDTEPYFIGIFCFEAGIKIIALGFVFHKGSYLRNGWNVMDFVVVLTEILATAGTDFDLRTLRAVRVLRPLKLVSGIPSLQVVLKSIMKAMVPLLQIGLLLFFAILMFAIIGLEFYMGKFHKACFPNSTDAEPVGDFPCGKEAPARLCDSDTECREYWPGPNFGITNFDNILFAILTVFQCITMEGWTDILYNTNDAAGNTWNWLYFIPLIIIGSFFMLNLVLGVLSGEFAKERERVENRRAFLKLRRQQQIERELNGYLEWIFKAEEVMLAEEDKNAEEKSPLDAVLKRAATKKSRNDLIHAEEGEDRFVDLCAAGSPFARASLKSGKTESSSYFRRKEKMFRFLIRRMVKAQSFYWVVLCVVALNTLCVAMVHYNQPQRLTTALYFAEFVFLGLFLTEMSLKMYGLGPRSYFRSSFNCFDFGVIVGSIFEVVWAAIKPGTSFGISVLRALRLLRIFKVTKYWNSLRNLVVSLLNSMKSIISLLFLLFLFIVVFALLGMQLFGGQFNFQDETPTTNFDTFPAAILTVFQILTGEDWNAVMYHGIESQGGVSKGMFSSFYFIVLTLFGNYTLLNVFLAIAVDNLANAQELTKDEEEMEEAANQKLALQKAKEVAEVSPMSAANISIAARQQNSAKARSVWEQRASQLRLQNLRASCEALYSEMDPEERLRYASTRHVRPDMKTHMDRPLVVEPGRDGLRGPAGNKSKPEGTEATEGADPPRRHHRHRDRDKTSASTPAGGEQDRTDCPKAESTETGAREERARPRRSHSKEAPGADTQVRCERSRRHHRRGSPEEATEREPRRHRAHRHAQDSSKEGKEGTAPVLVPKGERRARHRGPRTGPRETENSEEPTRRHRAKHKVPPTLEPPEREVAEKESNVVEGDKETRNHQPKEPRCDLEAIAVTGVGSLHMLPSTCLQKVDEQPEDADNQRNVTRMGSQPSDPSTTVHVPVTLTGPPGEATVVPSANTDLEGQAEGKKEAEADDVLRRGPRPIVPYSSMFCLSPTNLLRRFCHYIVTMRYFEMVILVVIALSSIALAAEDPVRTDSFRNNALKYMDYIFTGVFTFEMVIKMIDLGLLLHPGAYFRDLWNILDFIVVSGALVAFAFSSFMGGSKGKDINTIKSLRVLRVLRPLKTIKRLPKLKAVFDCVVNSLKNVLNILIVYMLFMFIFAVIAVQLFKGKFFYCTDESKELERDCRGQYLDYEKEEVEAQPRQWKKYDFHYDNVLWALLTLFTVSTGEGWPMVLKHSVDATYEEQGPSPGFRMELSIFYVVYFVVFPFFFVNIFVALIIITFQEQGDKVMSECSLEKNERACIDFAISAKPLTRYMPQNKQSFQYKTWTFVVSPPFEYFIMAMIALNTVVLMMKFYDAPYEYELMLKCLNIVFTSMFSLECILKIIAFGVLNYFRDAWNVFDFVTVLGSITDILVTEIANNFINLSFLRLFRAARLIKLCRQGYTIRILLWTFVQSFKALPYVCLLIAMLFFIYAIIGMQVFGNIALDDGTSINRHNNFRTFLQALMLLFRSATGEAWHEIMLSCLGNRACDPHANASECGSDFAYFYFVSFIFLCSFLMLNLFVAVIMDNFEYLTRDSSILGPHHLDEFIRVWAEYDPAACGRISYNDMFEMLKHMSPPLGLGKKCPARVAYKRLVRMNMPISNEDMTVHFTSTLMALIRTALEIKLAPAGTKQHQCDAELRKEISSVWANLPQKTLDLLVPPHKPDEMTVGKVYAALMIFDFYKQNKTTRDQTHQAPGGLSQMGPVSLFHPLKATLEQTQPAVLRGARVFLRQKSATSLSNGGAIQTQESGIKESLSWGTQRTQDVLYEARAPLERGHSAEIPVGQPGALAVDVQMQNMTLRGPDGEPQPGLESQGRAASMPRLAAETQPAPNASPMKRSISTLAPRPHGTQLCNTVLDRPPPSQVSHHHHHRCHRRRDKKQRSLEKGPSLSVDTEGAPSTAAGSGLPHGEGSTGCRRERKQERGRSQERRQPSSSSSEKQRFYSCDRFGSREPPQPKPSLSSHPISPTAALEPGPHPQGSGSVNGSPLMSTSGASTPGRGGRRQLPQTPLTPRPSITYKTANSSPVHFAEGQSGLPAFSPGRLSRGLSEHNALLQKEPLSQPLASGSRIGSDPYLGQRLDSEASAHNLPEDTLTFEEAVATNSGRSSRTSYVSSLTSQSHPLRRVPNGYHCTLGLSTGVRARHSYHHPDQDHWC
T2 sequence (P54287 whole entry partner): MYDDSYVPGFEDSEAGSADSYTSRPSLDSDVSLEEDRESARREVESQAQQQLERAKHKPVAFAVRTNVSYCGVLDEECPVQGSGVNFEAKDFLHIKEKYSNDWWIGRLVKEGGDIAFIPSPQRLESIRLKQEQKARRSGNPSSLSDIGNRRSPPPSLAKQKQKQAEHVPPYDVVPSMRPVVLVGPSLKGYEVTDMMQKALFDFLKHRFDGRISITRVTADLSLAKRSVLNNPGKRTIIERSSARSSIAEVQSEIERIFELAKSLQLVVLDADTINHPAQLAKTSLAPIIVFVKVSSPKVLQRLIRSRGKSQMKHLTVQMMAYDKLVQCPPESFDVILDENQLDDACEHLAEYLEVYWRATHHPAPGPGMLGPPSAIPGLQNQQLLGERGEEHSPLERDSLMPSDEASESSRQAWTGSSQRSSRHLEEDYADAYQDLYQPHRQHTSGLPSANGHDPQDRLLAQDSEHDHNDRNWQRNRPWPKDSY
T2 sequence (P54290 25-944 partner limits assumed): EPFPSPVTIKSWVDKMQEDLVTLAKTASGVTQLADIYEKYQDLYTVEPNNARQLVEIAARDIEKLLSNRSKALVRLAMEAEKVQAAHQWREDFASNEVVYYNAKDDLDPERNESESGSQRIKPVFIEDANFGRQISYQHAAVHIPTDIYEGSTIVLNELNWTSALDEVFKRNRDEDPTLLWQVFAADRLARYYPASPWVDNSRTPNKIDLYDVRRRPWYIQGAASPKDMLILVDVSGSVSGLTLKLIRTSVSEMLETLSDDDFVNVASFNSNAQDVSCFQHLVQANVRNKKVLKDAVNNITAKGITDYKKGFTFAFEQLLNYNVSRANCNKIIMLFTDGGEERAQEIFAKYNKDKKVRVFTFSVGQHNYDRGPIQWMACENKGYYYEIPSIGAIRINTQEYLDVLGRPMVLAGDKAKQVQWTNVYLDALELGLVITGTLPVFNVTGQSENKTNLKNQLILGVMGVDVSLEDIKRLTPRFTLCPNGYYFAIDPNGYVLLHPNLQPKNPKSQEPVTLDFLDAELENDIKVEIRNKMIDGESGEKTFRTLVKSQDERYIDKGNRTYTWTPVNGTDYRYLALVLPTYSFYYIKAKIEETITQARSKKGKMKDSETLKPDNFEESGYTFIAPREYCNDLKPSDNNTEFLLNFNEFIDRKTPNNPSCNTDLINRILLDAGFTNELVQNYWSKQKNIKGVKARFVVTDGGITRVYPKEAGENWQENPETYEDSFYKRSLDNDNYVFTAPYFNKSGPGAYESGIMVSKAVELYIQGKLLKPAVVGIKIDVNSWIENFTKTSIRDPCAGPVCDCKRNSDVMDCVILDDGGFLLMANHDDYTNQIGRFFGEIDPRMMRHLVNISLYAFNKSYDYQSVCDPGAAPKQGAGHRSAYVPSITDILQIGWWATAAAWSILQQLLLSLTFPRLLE
T2 sequence (P54290 945-1091 partner limits assumed): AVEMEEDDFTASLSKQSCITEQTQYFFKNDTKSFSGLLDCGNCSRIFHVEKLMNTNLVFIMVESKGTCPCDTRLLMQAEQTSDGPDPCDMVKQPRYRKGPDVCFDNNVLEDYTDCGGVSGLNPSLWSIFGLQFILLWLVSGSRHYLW
Protocol: as §1, §2
N-type Ca2+ (antagonist radioligand) […]
as §3, §4, §5

[2] = test system: fast voltage-gated sodium channels in rat prefrontal cortex pyramidal neurons; assay: Patch-clamp of fast sodium currents; format: cell-based; conditions: control = 1.0, n = 7
Protocol: The methodology of slice preparation, slice preincubation, and patch-clamp technique was the same as in our previous studies. Compound 53 was tested at a concentration of 10 µM.
Thus, we determined the influence of 53 on fast voltage-gated sodium channels in rat prefrontal cortex pyramidal neurons (at a concentration of 10 μM) using the patch-clamp technique. Maximal currents were evoked by rectangular voltage steps to 0 mV. […] The effect was not strong, but statistically significant (1.0 in the control and 0.83 ± 0.03 after the application of 53, p < 0.01). It was possible to obtain partial wash-out (0.86 ± 0.03 and the current were normalized to the control level, n = 7, Figure 5).
Figure 5 (A) The influence of compound 53 on sodium current is shown on an example neuron. The current was evoked once every ten seconds by a rectangular voltage-step. […] (B) Example of the sodium current recordings in the control (black trace), after the application of the tested compound (blue trace), and after wash-out (red trace). (C) The averaged normalized maximal current amplitudes in the control, in the presence of 53, and after wash-out. The data were analyzed with a nonparametric repeated measures ANOVA followed by Dunn’s post hoc test. * p < 0.01 (n = 7).

mice = assay: Capsaicin-induced hypothermia model / core body temperature; format: in vivo; conditions: i.p. 15 min before capsaicin 5 mg/kg; compound 60 50 mg/kg, BCTC 20 mg/kg
Protocol: Capsaicin was dissolved in 1% DMSO and administered at a dose of 5 mg/kg at a time point 0 min. Compound 60 and BCTC (positive control) were suspended in 1% Tween 80 and administered 15 min before capsaicin (at time point -15 min). All compounds were injected i.p. at a constant volume of 10 mL/kg. Control animals received the respective vehicles (1% DMSO or 1% Tween 80). Changes in the rectal temperature were measured using an electronic thermometer (ThermoWorks, Alpine, UT, USA) by inserting the rectal probe to a depth of ~2 cm into the rectum of the mouse. The measurements were taken at −15, 0, 15, 30, 60, 90, 120, and 180 min. The differences in the rectal temperature from baseline (time -15 min for groups receiving compound 60 and BCTC in combination with vehicle or time 0 min for groups receiving vehicle and capsaicin or compound 60 and BCTC in combination with capsaicin) to the respective time point ΔT (°C) were then calculated and analyzed. The results are shown in Figure 4 (see Section 3 Results and Discussion).
Figure 4 Effects of compound 60 and BCTC alone (A) or in combination with capsaicin (B) on the core body temperature in mice. Capsaicin (CPS) was injected at 0 min, as indicated by the arrow. Compound 60 or BCTC were administered 15 min prior to CPS injection. The temperature was measured at −15, 0, 15, 30, 60, 90, 120, and 180 min. Since body temperature returned to control values 60 min after CPS injection, subsequent measurements are not shown. Control animals received vehicles (1% DMSO or 1% Tween 80). All the compounds were administered i.p. Each experimental group consisted of seven to eight animals. The data are presented as the mean differences (ΔT) in rectal temperature from baseline (time −15 for A and time 0 for B) to the respective time point. The data were analyzed with one-way ANOVA followed by Tukey’s post hoc test. ** p < 0.01, *** p < 0.001, **** p < 0.0001 vs. the control group; ^#### p < 0.0001 vs. the CPS-treated group.

[3] = PAMPA permeability (Pre-coated PAMPA Plate System Gentest); format: in vitro ADME; conditions: read-out: Pe (permeability coefficient) ± SD

| % Inhibition of Control Specific Binding, GABAA ion channel (GABAA ion channel) | % Inhibition of Control Specific Binding, NMDA (NMDA receptor) | % Inhibition of Control Specific Binding, GABA transporter (GABA transporter) | inhibition at 100 µM (N-type Ca^2+ channel) | Papp [3] | SMILES | viability at 72 h [1] | inhibition at 100 µM (hERG) | normalized maximal amplitude of sodium current after application ([2]; 10 μM) | normalized maximal amplitude of sodium current after wash-out ([2]; after 10 μM) | effect on capsaicin-induced hypothermia (co-administration) (mice) |
| --- | --- | --- | --- | --- | --- | --- | --- | --- | --- | --- |
| −1.1 (100) % | 9.0 (100) % | 2.8 (100) % | 1.5% | – | CC(=O)NC(C(=O)N1CCN(c2cccc(C(F)(F)F)c2)CC1)c1ccccc1 (stereo not shown) [Compound 53, N-(2-oxo-1-phenyl-2-(4-(3-(trifluoromethyl)phenyl)piperazin-1-yl)ethyl)acetamide] | ≤ 140% | 24% | 0.83 ± 0.03 | 0.86 ± 0.03 | – |
| – | – | – | – | 9.15 ± 0.78 ×10⁻⁶ cm/s | CC(=O)NC(C(=O)N1CCN(c2cccc(OC(F)(F)F)c2)CC1)c1ccccc1 (stereo not shown) [Compound 60, N-(2-oxo-1-phenyl-2-(4-(3-(trifluoromethoxy)phenyl)piperazin-1-yl)ethyl)acetamide] | – | – | – | – | did not affect the capsaicin-induced hypothermia |
